Data as given in patent publication US20250361227A1, “INHIBITORS OF FLI1 AND ERG” (UNIVERSITY OF VIRGINIA PATENT FOUNDATION, priority 2022, published 2025).

Columns and labels:
ERG = molecular target: T1, ERG (Homo sapiens, UniProt P11308); test: Time-dependent ERG-DNA fluorescence polarization assay; conditions: time-dependent inhibition of ERG-DNA binding, irreversible inhibitor
T1 sequence (P11308 1-462 isoform P11308-1): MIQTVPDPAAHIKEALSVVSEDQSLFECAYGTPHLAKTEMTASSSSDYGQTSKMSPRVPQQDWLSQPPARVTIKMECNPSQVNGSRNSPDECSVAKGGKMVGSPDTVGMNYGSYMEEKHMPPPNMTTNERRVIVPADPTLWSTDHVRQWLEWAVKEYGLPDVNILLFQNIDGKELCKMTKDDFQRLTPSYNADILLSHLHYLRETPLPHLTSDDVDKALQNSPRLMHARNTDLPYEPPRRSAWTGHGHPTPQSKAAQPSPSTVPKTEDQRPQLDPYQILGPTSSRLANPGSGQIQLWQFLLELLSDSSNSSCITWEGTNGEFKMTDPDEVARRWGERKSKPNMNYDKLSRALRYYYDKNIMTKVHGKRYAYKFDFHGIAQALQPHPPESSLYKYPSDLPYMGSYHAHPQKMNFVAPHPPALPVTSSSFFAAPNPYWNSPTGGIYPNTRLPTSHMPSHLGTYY
Description: To assay such compounds time-dependent inhibition of ERG-DNA binding was recorded using a fluorescence polarization (FP) based assay and the rates were fitted to derive KI and kinact for the compounds which were ranked based on the kinact/KI values as has been described previously.
These compounds were assayed using the time-dependent ERG-DNA assay described above. Importantly, time-dependent inhibition was observed, a hallmark of irreversible inhibitors. […] ERG inhibitors show time-dependent inhibition characteristics of irreversible inhibitors based on the following formula: […]
Kobs values were determined from the initial slope for the first 15 minutes. NMR chemical shift perturbation data was consistent with 2 binding sites on ERG. FIG. 14A and FIG. 14B show selected changes in chemical shift for resonances in the ^15N-^1H HSQC NMR spectrum of ERGi upon addition of KK-36-25.

[1] = tested on: Ewing's sarcoma cell lines; test: Growth of Ewing's sarcoma cell lines; type: cell-based; conditions: read-out: IC50 values for inhibition of the growth
Description: (§1) The compounds of formula (I), in particular those in Table 3, were tested for their effects on the growth of Ewing sarcoma cell lines as well as a rhabdomyosarcoma cell line as a control. The inhibitors are active against Ewing sarcoma cell lines with sub μM EC50 values but not active with the rhabdomyosarcoma cell line. The relative activity of the compounds in the biochemical assay was also observed in the cellular data, consistent with an on-target mechanism of action. […] The inhibitor decreases expression of the two genes activated by EWS-FL11 and activates the expression of the gene repressed by EWS-FLI1, consistent with an on-target mechanism of action. The inhibitors have also been evaluated across a panel of leukemia cell lines and see selective activity on cell lines with an ERG and/or FLI1 dependence.
Evaluation of ERG inhibitors on Ewing's sarcoma cell lines. FIGS. 16A-16D show the results of treatment of Ewing's sarcoma cell lines with the bivalent ERG inhibitors. […] Ewing's sarcoma has EWS-FLI1 and EWS-ERG fusions (FLI1 is highly homologous to ERG). ERG inhibitors show submicromolar EC50 values for Ewing's sarcoma cell lines. […] Importantly, for the unrelated rhabdomyosarcoma cell line included in this panel, there was minimal inhibition of growth.

leukemia cell lines = test: Panel of leukemia cell lines; type: cell-based; conditions: Jurkat, RS4-11, Kasumi, K562, THP-1
Description: as §1
ERG inhibitor effects on leukemia cell lines. FIG. 17A-17D and FIG. 18A-18C show the effects of the ERG inhibitor on several leukemia cell lines. […] ERG inhibitors show efficacy against T-ALL cell line (Jurkat) and selective activity against specific leukemia cell lines. […] As expected from previous literature indicating a strong dependence on ERG for T-ALL, the T-ALL cell line Jurkat is quite sensitive to the ERG inhibitors (sub μM IC50 values). […]

[2] = molecular target: T2, ERG auto-inhibited construct (ERGi, 272-388) (Homo sapiens, UniProt P11308); test: ERGi-DNA fluorescence polarization assay; type: binding; conditions: FP DNA binding; maximum concentration 2000 μM; read-out: IC50 ERG Auto-inhibited construct
T2 construct: made in house
T2 sequence (P11308 272-388 isoform P11308-1): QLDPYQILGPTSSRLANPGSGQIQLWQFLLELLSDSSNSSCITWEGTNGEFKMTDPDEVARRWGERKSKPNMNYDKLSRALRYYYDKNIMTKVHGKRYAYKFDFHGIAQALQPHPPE
From the text: (§2) The constructs of ERG which retain full auto-inhibition were previously delineated (17). Fluorescence polarization-based assays for DNA binding were then developed, which were used for screening. In addition to the auto-inhibited form of ERG, it was important to also have an assay using its Ets domain, i.e., the uninhibited form of the protein, to compare action of compounds. Compounds which are active against the auto-inhibited form of the protein but have little or no effect on the uninhibited form were sought, indicating their binding is mediated by the non-conserved auto-inhibitory modules rather than the highly conserved Ets domain. […] Fragment screening is an alternative approach that has gained a great deal of favor in the pharma industry recently that employs relatively small molecules (22). […] The auto-inhibited construct was screened first with a dose dependent screen of actives with ERGi using fluorescein- and Texas Red-DNA and then the positive hits were counter-screened with the ERG Ets domain, specifically a screen of actives with ERGu, the latter screen serving to remove compounds which bind to the conserved Ets domain or to DNA, which left 26 compounds which inhibit the auto-inhibited construct of ERG binding to DNA but not the uninhibited ERG (the Ets domain) binding to DNA. ERGi is the auto-inhibited construct of ERG (272-388) and ERGu is the uninhibited DNA binding domain construct of ERG (289-378). […] The IC50 of the validated hits was 0.6-7 mM. […] Importantly, chemical shift changes upon compound addition are observed in the ^15N-^1H HSQC NMR spectra of ERG for amino acids located in the auto-inhibitory modules of ERG, indicating they do interact with these regions of the protein. It is critical to also develop assays for other ETS family members to assess the specificity of action of the compounds identified in the screen, so auto-inhibited constructs were expressed and assays were developed for five other ETS family members and assays for additional members of the family were also developed.
(§3) Using a standard medicinal chemistry approach, further optimization of the fragment hits were pursued. The specificity of parent fragments and their optimized derivatives with 5 additional Ets proteins which are representatives of 5 additional sub-families, were evaluated, as shown in Table 2. […] NA in Table 2 represents no activity up to the 2000 μM maximum concentration. >number in Table 2 represents some activity at highest concentrations so data fit with a lower bound to obtain an estimate of IC50.

[3] = molecular target: T3, ERG isolated Ets domain (ERGu, 289-378) (Homo sapiens, UniProt P11308); test: Fluorescence polarization DNA binding assay, uninhibited ERG; conditions: FP DNA binding, NA = no activity up to 2000 μM, >number = estimate from fit with lower bound
T3 construct: made in house
T3 sequence (P11308 289-378 isoform P11308-1): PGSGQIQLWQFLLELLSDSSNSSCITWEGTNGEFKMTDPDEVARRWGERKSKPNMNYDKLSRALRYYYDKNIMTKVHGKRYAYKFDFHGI
From the text: as §2, §3

ELK1 = molecular target: T4, ELK1 (Homo sapiens, UniProt P19419); test: Fluorescence polarization DNA binding assay, auto-inhibited ELK1; conditions: auto-inhibited construct; NA = no activity up to 2000 μM; >number = estimate from fit with lower bound
T4 sequence (P19419 1-428): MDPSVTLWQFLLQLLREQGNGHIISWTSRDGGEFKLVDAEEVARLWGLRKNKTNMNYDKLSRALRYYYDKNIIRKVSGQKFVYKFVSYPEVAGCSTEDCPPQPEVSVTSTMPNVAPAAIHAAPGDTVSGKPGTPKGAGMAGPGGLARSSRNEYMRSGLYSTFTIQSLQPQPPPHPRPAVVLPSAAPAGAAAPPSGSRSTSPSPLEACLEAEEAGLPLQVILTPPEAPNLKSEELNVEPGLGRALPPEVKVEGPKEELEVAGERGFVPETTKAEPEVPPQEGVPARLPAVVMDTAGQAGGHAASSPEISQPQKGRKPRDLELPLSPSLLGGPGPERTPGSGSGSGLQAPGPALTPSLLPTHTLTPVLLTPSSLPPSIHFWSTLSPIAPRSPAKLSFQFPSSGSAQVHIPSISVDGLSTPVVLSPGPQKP
From the text: as §2, §3

ELF3 = molecular target: T5, ELF3 (Homo sapiens, UniProt P78545); test: Fluorescence polarization DNA binding assay, auto-inhibited ELF3; conditions: auto-inhibited construct; NA = no activity up to 2000 μM; >number = estimate from fit with lower bound
T5 sequence (P78545 1-371): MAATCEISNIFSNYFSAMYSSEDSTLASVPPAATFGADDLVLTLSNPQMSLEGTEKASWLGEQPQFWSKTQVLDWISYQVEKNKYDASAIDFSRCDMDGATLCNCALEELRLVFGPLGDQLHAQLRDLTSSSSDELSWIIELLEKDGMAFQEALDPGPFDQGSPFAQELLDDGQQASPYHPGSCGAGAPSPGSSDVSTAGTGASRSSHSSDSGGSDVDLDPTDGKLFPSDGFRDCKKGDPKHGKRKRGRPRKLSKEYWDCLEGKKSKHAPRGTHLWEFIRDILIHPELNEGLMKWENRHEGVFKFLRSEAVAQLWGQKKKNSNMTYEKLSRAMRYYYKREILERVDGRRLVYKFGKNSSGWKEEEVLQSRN
From the text: as §2, §3

Ets1 = molecular target: T6, Ets1 (Homo sapiens, UniProt P14921); test: Fluorescence polarization DNA binding assay, auto-inhibited Ets-1; conditions: auto-inhibited construct; NA = no activity up to 2000 μM; >number = estimate from fit with lower bound
T6 sequence (P14921 1-441): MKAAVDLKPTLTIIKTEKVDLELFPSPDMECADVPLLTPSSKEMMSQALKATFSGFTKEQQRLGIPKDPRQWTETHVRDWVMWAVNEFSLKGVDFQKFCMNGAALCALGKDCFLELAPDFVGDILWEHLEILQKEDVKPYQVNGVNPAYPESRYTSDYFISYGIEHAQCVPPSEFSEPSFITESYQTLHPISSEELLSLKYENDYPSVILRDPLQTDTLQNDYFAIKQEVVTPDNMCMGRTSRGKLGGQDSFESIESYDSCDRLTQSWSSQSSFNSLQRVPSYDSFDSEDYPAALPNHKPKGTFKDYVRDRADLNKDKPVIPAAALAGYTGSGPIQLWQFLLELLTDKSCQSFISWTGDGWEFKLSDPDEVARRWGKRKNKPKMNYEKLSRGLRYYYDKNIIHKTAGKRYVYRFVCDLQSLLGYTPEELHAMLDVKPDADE
From the text: as §2, §3

Spi1 (PU.1) = Spi1 (PU.1) (Homo sapiens, UniProt P17947); test: Fluorescence polarization DNA binding assay, auto-inhibited PU.1; conditions: auto-inhibited construct; NA = no activity up to 2000 μM; >number = estimate from fit with lower bound
From the text: as §2, §3

ETV6 (TEL) = molecular target: T7, ETV6 (TEL) (Homo sapiens, UniProt P41212); test: Fluorescence polarization DNA binding assay, auto-inhibited ETV6; conditions: auto-inhibited construct; NA = no activity up to 2000 μM; >number = estimate from fit with lower bound
T7 sequence (P41212 1-452): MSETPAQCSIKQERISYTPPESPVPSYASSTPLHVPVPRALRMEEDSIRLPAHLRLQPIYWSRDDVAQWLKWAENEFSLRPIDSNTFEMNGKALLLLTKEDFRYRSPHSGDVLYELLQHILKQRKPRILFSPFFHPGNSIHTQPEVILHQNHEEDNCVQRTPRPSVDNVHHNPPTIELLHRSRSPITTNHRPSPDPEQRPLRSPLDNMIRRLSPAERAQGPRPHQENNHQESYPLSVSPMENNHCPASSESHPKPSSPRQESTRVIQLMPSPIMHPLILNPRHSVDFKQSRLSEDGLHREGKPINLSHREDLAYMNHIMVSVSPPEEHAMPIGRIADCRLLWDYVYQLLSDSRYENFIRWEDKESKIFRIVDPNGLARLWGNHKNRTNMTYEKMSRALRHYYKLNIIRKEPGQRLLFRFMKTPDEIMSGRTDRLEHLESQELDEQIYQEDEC
From the text: as §2, §3

## Cc1ccc(-c2nc3cc(Cl)c(NC(=O)CCOCCn4cc(COCCOCCOc5ccc(S(=O)(=O)C6CCN(C(=O)/C=C/c7cc8ccccc8o7)C6)cc5)nn4)cc3o2)cc1 (centres unmarked) [KK-36-25]
ERG
  Ki: 6.3 µM
[1]
  IC50: ≤ 1 µM
Leukemia cell lines
  selectivity across leukemia cell lines: selective for Leukemia cell lines dependent on ERG

## Cc1ccc(-c2nc3cc(Cl)c(NC(=O)CCOCCn4cc(COCCOCCOCCOc5ccc(S(=O)(=O)C6CCN(C(=O)/C=C/c7cc8ccccc8o7)C6)cc5)nn4)cc3o2)cc1 (centres unmarked) [KK-36-84]
[1]
  IC50: ≤ 1 µM

## Nc1ccc(Cl)c(-c2nc3ccccc3o2)c1 [Compound 9B5]
[2]
  IC50: 965 µM
[3]
  IC50: > 2000 µM
ELK1
  IC50: > 2100 µM
ELF3
  IC50: 1830 µM
Ets1
  IC50: > 2000 µM
Spi1 (PU.1)
  IC50: > 4100 µM
ETV6 (TEL)
  IC50: > 2500 µM
